From PubChem BioAssay AID1259407 (Chemical Carcinogenesis Research Information System (CCRIS), 2018) come the findings set out here.

Activity calls are given as the source filed them. No rule for the calls is given here.

The subject of this series is CCRIS mutagenicity, Ames/micronucleus/aberration tests. The experiment in a line: CCRIS mutagenicity studies.
Setting [1] is: Test System: AMES SALMONELLA TYPHIMURIUM, Strain/Indicator: TA98, Metabolic Activation: NONE, Method: STANDARD PLATE.
Setting [2] is: Test System: AMES SALMONELLA TYPHIMURIUM, Strain/Indicator: TA100, Metabolic Activation: NONE, Method: STANDARD PLATE.
Setting [3] is: Test System: AMES SALMONELLA TYPHIMURIUM, Strain/Indicator: TA98, Metabolic Activation: NONE, Method: PREINCUBATION
The mark [4] stands for this setting: Test System: AMES SALMONELLA TYPHIMURIUM, Strain/Indicator: TA100, Metabolic Activation: NONE, Method: PREINCUBATION
[5] abbreviates: Test System: AMES SALMONELLA TYPHIMURIUM, Strain/Indicator: TA1535, Metabolic Activation: NONE, Method: PREINCUBATION
The mark [6] stands for this setting: Test System: AMES SALMONELLA TYPHIMURIUM, Strain/Indicator: TA1537, Metabolic Activation: NONE, Method: PREINCUBATION

On to `CCN(CC)C(=O)Nc1ccc(OCC(O)CNC(C)(C)C)c(C(C)=O)c1` (centres undefined), for which the mutagenic call (Test System: AMES SALMONELLA TYPHIMURIUM, Strain/Indicator: TA97, Metabolic Activation: NONE, Method: STANDARD PLATE) is “inactive; negative”; the mutagenic call under setting [1] is “inactive; negative”; the mutagenic call (Test System: AMES SALMONELLA TYPHIMURIUM, Strain/Indicator: TA98, Metabolic Activation: RAT, LIVER, S-9, AROCLOR 1254, Method: STANDARD PLATE) is “inactive; negative”; the mutagenic call (Test System: AMES SALMONELLA TYPHIMURIUM, Strain/Indicator: TA98, Metabolic Activation: RAT, S-9, AROCLOR 1254, Method: STANDARD PLATE) was “inactive; negative”; the mutagenic call under setting [2] was “inactive; negative”; the mutagenic call (Test System: AMES SALMONELLA TYPHIMURIUM, Strain/Indicator: TA100, Metabolic Activation: RAT, LIVER, S-9, AROCLOR 1254, Method: STANDARD PLATE) was “inactive; negative”. The mutagenic call was “inactive; negative” (Test System: AMES SALMONELLA TYPHIMURIUM, Strain/Indicator: TA100, Metabolic Activation: RAT, S-9, AROCLOR 1254, Method: STANDARD PLATE); “inactive; negative” (Test System: AMES SALMONELLA TYPHIMURIUM, Strain/Indicator: TA102, Metabolic Activation: NONE, Method: STANDARD PLATE); “inactive; negative” (Test System: AMES SALMONELLA TYPHIMURIUM, Strain/Indicator: TA1535, Metabolic Activation: NONE, Method: STANDARD PLATE); “inactive; negative” (Test System: AMES SALMONELLA TYPHIMURIUM, Strain/Indicator: TA1535, Metabolic Activation: RAT, S-9, AROCLOR 1254, Method: STANDARD PLATE); “inactive; negative” (Test System: AMES SALMONELLA TYPHIMURIUM, Strain/Indicator: TA1537, Metabolic Activation: NONE, Method: STANDARD PLATE); “inactive; negative” (Test System: AMES SALMONELLA TYPHIMURIUM, Strain/Indicator: TA1537, Metabolic Activation: RAT, S-9, AROCLOR 1254, Method: STANDARD PLATE). Besides, the mutagenic call (Test System: AMES SALMONELLA TYPHIMURIUM, Strain/Indicator: TA1538, Metabolic Activation: NONE, Method: STANDARD PLATE) was “inactive; negative”; the mutagenic call (Test System: AMES SALMONELLA TYPHIMURIUM, Strain/Indicator: TA1538, Metabolic Activation: RAT, S-9, AROCLOR 1254, Method: STANDARD PLATE) was “inactive; negative”; the mutagenic call (Test System: E. COLI, Strain/Indicator: WP2, Metabolic Activation: NONE, Method: STANDARD PLATE) is “inactive; negative”; the mutagenic call (Test System: E. COLI, Strain/Indicator: WP2, Metabolic Activation: RAT, S-9, AROCLOR 1254, Method: STANDARD PLATE) was “inactive; negative”; the mutagenic call (Test System: E. COLI, Strain/Indicator: WP2 UVRA, Metabolic Activation: NONE, Method: STANDARD PLATE) was “inactive; negative”; the mutagenic call (Test System: E. COLI, Strain/Indicator: WP2 UVRA, Metabolic Activation: RAT, S-9, AROCLOR 1254, Method: STANDARD PLATE) was “inactive; negative”.

For `Cn1c(N=[N+]=[N-])nc2c3ccccc3ccc21`, the mutagenic call is “active; positive” (Test System: AMES SALMONELLA TYPHIMURIUM, Strain/Indicator: TA98(1,8-DNP6), Metabolic Activation: NONE, Method: STANDARD PLATE) and “active; positive” under setting [1].

On to `CCN`, for which the mutagenic call runs as follows: (Test System: AMES SALMONELLA TYPHIMURIUM, Strain/Indicator: TA98, Metabolic Activation: HAMSTER, LIVER, S-9, AROCLOR 1254 (10%), Method: PREINCUBATION) “inactive; negative”; under setting [3], “inactive; negative”; (Test System: AMES SALMONELLA TYPHIMURIUM, Strain/Indicator: TA98, Metabolic Activation: RAT, LIVER, S-9, AROCLOR 1254 (10%), Method: PREINCUBATION) “inactive; negative”; (Test System: AMES SALMONELLA TYPHIMURIUM, Strain/Indicator: TA100, Metabolic Activation: HAMSTER, LIVER, S-9, AROCLOR 1254 (10%), Method: PREINCUBATION) “inactive; negative”; under setting [4], “inactive; negative”; (Test System: AMES SALMONELLA TYPHIMURIUM, Strain/Indicator: TA100, Metabolic Activation: RAT, LIVER, S-9, AROCLOR 1254 (10%), Method: PREINCUBATION) “inactive; negative”. Also, the mutagenic call was “inactive; negative” (Test System: AMES SALMONELLA TYPHIMURIUM, Strain/Indicator: TA1535, Metabolic Activation: HAMSTER, LIVER, S-9, AROCLOR 1254 (10%), Method: PREINCUBATION); “inactive; negative” under setting [5]; “inactive; negative” (Test System: AMES SALMONELLA TYPHIMURIUM, Strain/Indicator: TA1535, Metabolic Activation: RAT, LIVER, S-9, AROCLOR 1254 (10%), Method: PREINCUBATION); “inactive; negative” (Test System: AMES SALMONELLA TYPHIMURIUM, Strain/Indicator: TA1537, Metabolic Activation: HAMSTER, LIVER, S-9, AROCLOR 1254 (10%), Method: PREINCUBATION); “inactive; negative” under setting [6]; “inactive; negative” (Test System: AMES SALMONELLA TYPHIMURIUM, Strain/Indicator: TA1537, Metabolic Activation: RAT, LIVER, S-9, AROCLOR 1254 (10%), Method: PREINCUBATION).

`CN(C)C(=O)Nc1ccc(Cl)cc1`: the mutagenic call by setting is: (End Point: IN VITRO CHROMOSOMAL ABERRATIONS, Test System: CHINESE HAMSTER OVARY CELLS, Metabolic Activation: NONE) “inactive; negative; precipitation occurred at all doses”; (End Point: IN VITRO CHROMOSOMAL ABERRATIONS, Test System: CHINESE HAMSTER OVARY CELLS, Metabolic Activation: RAT, LIVER, S-9, AROCLOR 1254) “active; positive; precipitation occurred at all doses”; (Test System: AMES SALMONELLA TYPHIMURIUM, Strain/Indicator: TA98, Metabolic Activation: HAMSTER, LIVER, S-9, AROCLOR 1254, Method: PREINCUBATION) “inactive; negative”; under setting [3], “inactive; negative”; (Test System: AMES SALMONELLA TYPHIMURIUM, Strain/Indicator: TA98, Metabolic Activation: RAT, LIVER, S-9, AROCLOR 1254, Method: PREINCUBATION) “inactive; negative”; (Test System: AMES SALMONELLA TYPHIMURIUM, Strain/Indicator: TA100, Metabolic Activation: HAMSTER, LIVER, S-9, AROCLOR 1254, Method: PREINCUBATION) “inactive; negative”. The mutagenic call runs as follows: under setting [4], “inactive; negative”; (Test System: AMES SALMONELLA TYPHIMURIUM, Strain/Indicator: TA100, Metabolic Activation: RAT, LIVER, S-9, AROCLOR 1254, Method: PREINCUBATION) “inactive; negative”; (Test System: AMES SALMONELLA TYPHIMURIUM, Strain/Indicator: TA1535, Metabolic Activation: HAMSTER, LIVER, S-9, AROCLOR 1254, Method: PREINCUBATION) “inactive; negative”; under setting [5], “inactive; negative”; (Test System: AMES SALMONELLA TYPHIMURIUM, Strain/Indicator: TA1535, Metabolic Activation: RAT, LIVER, S-9, AROCLOR 1254, Method: PREINCUBATION) “inactive; negative”; (Test System: AMES SALMONELLA TYPHIMURIUM, Strain/Indicator: TA1537, Metabolic Activation: HAMSTER, LIVER, S-9, AROCLOR 1254, Method: PREINCUBATION) “inactive; negative”. The mutagenic call by setting is: under setting [6], “inactive; negative”; (Test System: AMES SALMONELLA TYPHIMURIUM, Strain/Indicator: TA1537, Metabolic Activation: RAT, LIVER, S-9, AROCLOR 1254, Method: PREINCUBATION) “inactive; negative”.

On to `CNC(=O)N(O)C(C)=O`, for which the mutagenic call is, setting by setting: under setting [1], “active; positive”; (Test System: AMES SALMONELLA TYPHIMURIUM, Strain/Indicator: TA98, Metabolic Activation: RAT, LIVER, S-9, Method: STANDARD PLATE) “active; positive”; under setting [2], “active; positive”.
